Test results published in PubChem BioAssay AID256 (DTP/NCI, 2004).
Where “and” joins values, the source holds several entries; their conditions need not be identical. Equal entries are not always repeated. Inconclusive results and toxic doses are left out. The calls were made as follows: active = survival T/C of 150% or more; inactive = T/C below 125% in these data.

System: CD2F1 mice, L1210 leukemia ip, survival T/C
Experiment: NCI In Vivo Anticancer Drug Screen. Data for tumor model L1210 Leukemia (intraperitoneal) in CD2F1 (CDF1) mice
Conditions: higher = longer survival
Method in brief: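 Compound-dosed mice with transplantable tumor versus matched vehicle controls; endpoint ratio T/C reported.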

[1] = endpoint: mean survival time, dose: 100.0 mg/kg/injection, schedule: Q04DX003 (ip), vehicle: saline with Tween-80
[2] = endpoint: mean survival time, dose: 200.0 mg/kg/injection, schedule: Q04DX003 (ip), vehicle: saline with Tween-80

Measured: T/C

Cc1cc(N2CCN(C)CC2)n2nc(-c3ccc(Cl)cc3)nc2n1
inactive: endpoint: mean survival time, dose: 50.0 mg/kg/injection, schedule: Q01DX001 (ip), vehicle: Klucel (hydroxypropylcellulose) (HPC) 120 % of control | endpoint: mean survival time, dose: 50.0 mg/kg/injection, schedule: Q01DX009 (ip), vehicle: Klucel (hydroxypropylcellulose) (HPC) 100 % of control | endpoint: mean survival time, dose: 100.0 mg/kg/injection, schedule: Q01DX001 (ip), vehicle: Klucel (hydroxypropylcellulose) (HPC) 95 % of control | endpoint: mean survival time, dose: 100.0 mg/kg/injection, schedule: Q01DX009 (ip), vehicle: Klucel (hydroxypropylcellulose) (HPC) 99 % of control | endpoint: mean survival time, dose: 200.0 mg/kg/injection, schedule: Q01DX001 (ip), vehicle: Klucel (hydroxypropylcellulose) (HPC) 93 % of control | endpoint: mean survival time, dose: 200.0 mg/kg/injection, schedule: Q01DX009 (ip), vehicle: Klucel (hydroxypropylcellulose) (HPC) 97 % of control

O=C(CC(O)(C(F)(F)F)C(F)(F)F)c1ccc([N+](=O)[O-])cc1
inactive: endpoint: mean survival time, dose: 100.0 mg/kg/injection, schedule: Q01DX009 (ip), vehicle: other 97 % of control | endpoint: mean survival time, dose: 200.0 mg/kg/injection, schedule: Q01DX009 (ip), vehicle: other 97 % of control | endpoint: mean survival time, dose: 400.0 mg/kg/injection, schedule: Q01DX009 (ip), vehicle: other 101 % of control

COc1ccc2c(c1C)CN1CCc3cc4c(cc3C1=C2)OCO4
inactive: endpoint: mean survival time, dose: 75.0 mg/kg/injection, schedule: Q01DX001 (ip), vehicle: other 94 % of control | endpoint: mean survival time, dose: 150.0 mg/kg/injection, schedule: Q01DX001 (ip), vehicle: other 88 % of control | endpoint: mean survival time, dose: 300.0 mg/kg/injection, schedule: Q01DX001 (ip), vehicle: other 88 % of control

CC(C(=O)O)C(C(=O)O)C(=O)O (stereo not drawn)
inactive: endpoint: mean survival time, dose: 100.0 mg/kg/injection, schedule: Q04DX003 (ip), vehicle: saline 93 % of control | endpoint: mean survival time, dose: 200.0 mg/kg/injection, schedule: Q04DX003 (ip), vehicle: saline 96 % of control

c1ccc(CCC2=Nc3ccccc3CO2)cc1
inactive: [1] 102 % of control | [2] 103 % of control | endpoint: mean survival time, dose: 400.0 mg/kg/injection, schedule: Q04DX003 (ip), vehicle: saline with Tween-80 102 % of control

O=C(Nc1cccc(O)c1)C(Cl)=C(Cl)Cl
inactive: endpoint: median survival time, dose: 1.12 mg/kg/injection, schedule: Q01DX005 (ip), vehicle: DMSO 100 % of control | endpoint: median survival time, dose: 1.19 mg/kg/injection, schedule: Q01DX005 (ip), vehicle: DMSO 101 % of control | endpoint: median survival time, dose: 1.87 mg/kg/injection, schedule: Q01DX005 (ip), vehicle: DMSO 100 % of control and 102 % of control | endpoint: median survival time, dose: 3.12 mg/kg/injection, schedule: Q01DX005 (ip), vehicle: DMSO 113 % of control and 98 % of control | endpoint: median survival time, dose: 5.19 mg/kg/injection, schedule: Q01DX005 (ip), vehicle: DMSO 104 % of control | endpoint: median survival time, dose: 5.2 mg/kg/injection, schedule: Q01DX005 (ip), vehicle: DMSO 108 % of control | endpoint: median survival time, dose: 6.25 mg/kg/injection, schedule: Q01DX005 (ip), vehicle: other 120 % of control | endpoint: median survival time, dose: 8.66 mg/kg/injection, schedule: Q01DX005 (ip), vehicle: DMSO 102 % of control | endpoint: median survival time, dose: 8.67 mg/kg/injection, schedule: Q01DX005 (ip), vehicle: DMSO 114 % of control | endpoint: median survival time, dose: 12.5 mg/kg/injection, schedule: Q01DX005 (ip), vehicle: other 118 % of control | endpoint: median survival time, dose: 25.0 mg/kg/injection, schedule: Q01DX005 (ip), vehicle: other 93 % of control

NC(=O)c1ccc[n+](CCN(CCCl)c2ccc3ccccc3c2)c1
inactive: endpoint: mean survival time, dose: 1.25 mg/kg/injection, schedule: Q01DX009 (ip), vehicle: Klucel (hydroxypropylcellulose) (HPC) 104 % of control | endpoint: mean survival time, dose: 2.5 mg/kg/injection, schedule: Q01DX009 (ip), vehicle: Klucel (hydroxypropylcellulose) (HPC) 107 % of control | endpoint: mean survival time, dose: 5.0 mg/kg/injection, schedule: Q01DX009 (ip), vehicle: Klucel (hydroxypropylcellulose) (HPC) 102 % of control

N#CN=C(N)NC(=O)c1ccccc1
inactive: [1] 102 % of control | [2] 98 % of control
